Experimental data published in patent publication EP0074411B1, “ASCORBIC ACID DERIVATIVES” (SANTEN PHARMACEUTICAL CO., LTD., priority 1981, dated 1982).

Test system: ddY-SPF strain male mouse
Test: Acute toxicity test
Format: in vivo
Details: ddY-SPF strain male mouse (weight: 25 to 30 g); administered orally as 0.5% tragacanth suspension
Protocol: Acute toxicity test • Acute toxicity of 3,6-0,0' - dipivaloyl - L - ascorbic acid of this invention is shown below. • Animal: ddY-SPF strain male mouse (weight: 25 to 30 g) • Method of administration: The compound is administered orally as 0.5% tragacanth suspension. • Acute toxicity: LDso 5000 mg/kg.

## CC(C)(C)C(=O)OC[C@H](O)[C@H]1OC(=O)C(O)=C1OC(=O)C(C)(C)C [3,6-0,0'-Dipivaloyl-L-ascorbic acid]
  Acute toxicity: LDso: 5000 mg/kg
